From article PMC10034064, “Expanding the apelin receptor pharmacological toolbox using novel fluorescent ligands” (Frontiers in Endocrinology, 2023)
Bridge positions count the residues as written; N and C are the ends. Peptide text beside a SMILES is read from it.

Legend:
apelin receptor [1] = biological target: T1, apelin receptor (Homo sapiens, UniProt P35414); test: Fluorescent ligand binding (saturation, specificity, competition) in CHO-APLNR cells by high content imaging; set-up: host or cells: CHO-K1
T1 sequence (P35414 1-380): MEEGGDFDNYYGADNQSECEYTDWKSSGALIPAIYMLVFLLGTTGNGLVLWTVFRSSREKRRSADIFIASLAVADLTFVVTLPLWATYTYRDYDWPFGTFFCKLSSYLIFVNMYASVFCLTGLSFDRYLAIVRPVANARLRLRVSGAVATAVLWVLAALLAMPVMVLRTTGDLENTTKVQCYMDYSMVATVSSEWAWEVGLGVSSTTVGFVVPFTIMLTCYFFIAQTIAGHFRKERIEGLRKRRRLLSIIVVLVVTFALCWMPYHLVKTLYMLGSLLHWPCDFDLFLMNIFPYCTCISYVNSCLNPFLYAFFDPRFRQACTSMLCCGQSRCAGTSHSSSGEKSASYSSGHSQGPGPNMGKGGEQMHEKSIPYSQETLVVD
Experimental: (§1) Cells were seeded in CellCarrier-96 Ultra Plates at a density of ~10 k/well. […] For time-course experiments, CHO-APLNR were treated with 300 nM of the fluorescent ligand for 0 – 90 mins, in the dark at room temperature. For saturation binding experiments, CHO-APLNR were treated with a concentration range of 1 – 300 nM of the fluorescent ligand for 90 mins, in the dark at room temperature. […] Untransfected CHO-K1 cells were also used as controls. […] At the end-points, CHO-APLNR were washed with HBSS before fixation with 4% formaldehyde. CHO-APLNR were washed with HBSS before treatment with Hoechst 33342 nuclear marker prepared at 10 µg/mL in HBSS for 15 mins. […] The software was also used to calculate binding affinities (Ki values) of competing ligands using the Cheng-Prusoff equation.
(§2) For imaging studies, cells in CellCarrier-96 Ultra Plates (PerkinElmer) were imaged using a 40x/NA1.1 water immersion objective. The device was set to measure an image field within each well, where the field is made up of a 4 x 4 or 5 x 5 grid of imaging regions (where each region is 250 x 250 μm in area). After using Z stacking to find an appropriate focal plane, cells were visualised and imaged at a focal depth of 0.5 μm above the bottom of the plate in all experiments. […]
(§3) Following image acquisition, several cell parameters were quantified using in-built Harmony High Content Imaging and Analysis Software (PerkinElmer). […] Intracellular fluorescence was calculated as fluorescence identified in the membrane collar subtracted from whole cell fluorescence. Mean fluorescence intensities were calculated for membrane and whole cell compartments in observed cells in the selected population, given as fluorescence units provided by Harmony software.

[2] = biological target: T2, human apelin receptor (AGTRL1) (Homo sapiens, UniProt P35414); test: PathHunter GPCR internalisation assay in U2OS cells; type: cell-based; conditions: U2OS cells overexpressing human apelin receptor, 90 mins, n = 3
T2 construct: host or cells: U2OS
T2 sequence (P35414 1-380): T1 sequence (P35414 1-380)
Experimental: Internalisation of apelin receptor following ligand treatment was determined using an in vitro PathHunter GPCR Internalisation Assay (Eurofins). The manufacturer’s protocol was modified in accordance with previous in-house optimisation. All reagents were provided in the assay kit. U2OS cells overexpressing human apelin receptor (AGTRL1) were seeded in cell plating reagent into 96-well plates and incubated for 48 h at 37°C, 5% CO2, humidified. To test novel fluorescent compounds for agonist activity, wells were treated with test compounds over a concentration range in Cell Plating Reagent to generate an 8-point concentration-response curve. Cells were then incubated for 90 mins at 37°C, 5% CO2, humidified before treatment with Working Detection Solution (Cell Assay Buffer, Substrate Reagent 1, Substrate Reagent 2), and incubation for 2 h at room temperature, protected from light. Plates were read in a chemiluminescence detecting LumiLITE Microplate Reader (DiscoveRx, Fremont, CA, USA). Responses, measured in Relative Light Units (RLU), were fitted to four parameter logistic concentration response curves in GraphPad Prism version 6.07 for Windows (GraphPad Software) to determine compound concentrations inducing half maximal response (EC50), and pD2 values (-log10 EC50) were calculated.

apelin receptor [3] = biological target: T1, apelin receptor; test: Fluorescent ligand binding in human kidney tissue sections
Experimental: Frozen human kidney tissue sections (10 µm), were cut using a cryostat onto microscopy slides. […] Slides were washed with HBSS before fixation with 4% formaldehyde for 3 mins.
Automated fluorescent images (16 bit, 0.325 x 0.325 μm scaling per pixel) of fixed and mounted human tissue stained with fluorescent markers were acquired using an Axio Scan Z1 slide scanner (Zeiss) slide scanner with a Plan-Apochromat 20x/NA0.8 M27 objective lens connected to a Hamamatsu Orca Flash camera. An initial brightfield scan was performed to visualise tissue on slides, and a spline contour tool was used to outline the tissue to minimise the total region imaged. A profile with three fluorescent channels was used; a first channel (blue), with an LED-Module 385 nm light source set at 10% intensity and 10 ms exposure time at a depth of focus of 1.45 μm for Hoechst 33342 nuclear marker (405 nm wavelength); a second channel (green), with an LED-Module 475 nm light source set at 80% intensity and 30 ms exposure time at a depth of focus of 1.64 μm for 488 nm wavelengths; and a third channel (yellow/orange), an LED-Module 567 nm light source set at 80% intensity and 30 ms exposure time at a depth of focus of 1.88 μm for 555 nm wavelengths. Focal depths were determined by the slide scanner’s in-built Z stacking autofocusing. All acquired images were saved and visualised using ZEN software (Zeiss) and/or Orbit Image Analysis (ORBIT) software. Regions of interest were identified using the spline contour, and mean fluorescent signal (in grayscales) was provided by ZEN software (Zeiss).

apelin receptor [4] = biological target: T1, apelin receptor; test: Dynamic mass redistribution assay in CHO-APLNR cells; type: cell-based; set-up: host or cells: CHO-K1; conditions: maximal change in peak wavelength value from baseline, n = 3
Experimental: Apelin receptor downstream signalling was determined using an in vitro BIND technology dynamic mass redistribution assay (SRU Biosystems). CHO-APLNR cells were seeded in 96-well biosensor plates (SRU Biosystems) at a density of 50K/well, maintained in 95 µL feeding media, and incubated for 24 h at 37°C, 5% CO2, humidified. The following day, the plate was loaded onto the SRU Biosystems BIND PROFILER TURBO reader, and left to acclimatise to room temperature for 20 mins before a baseline read was taken over 10 mins. To test novel fluorescent compounds for agonist activity, cells were treated with test compounds (5 µL additions in PBS) over a concentration range to generate an 8-point concentration-response curve. The biosensor plate was read for a subsequent 60 mins. Responses, measured in maximal change in peak wavelength value from baseline (ΔPWV), were fitted to four parameter logistic concentration response curves in GraphPad Prism version 6.07 for Windows (GraphPad Software) to determine compound concentrations inducing half maximal response (EC50), and pD2 values (-log10 EC50) were calculated.

apelin receptor [5] = biological target: T1, apelin receptor; test: Radioligand competition binding against [125I]-apelin-13 in human left ventricle homogenate; set-up: Surgical samples of human left ventricle (HLV) tissue were obtained with informed consent; from tissue; host or cells: human left ventricle homogenate; conditions: apelin ligands vs [Pyr1]apelin-13; ELA ligands vs ELA-14
Experimental: Surgical samples of human left ventricle (HLV) tissue were obtained with informed consent and ethical approval (05/Q104/142). Tissues were snap frozen in liquid nitrogen before storage at -80°C. On the day of preparation, tissue was chopped finely with a razor blade on ice, before subsequent homogenisation using a Polytron Homogenizer (Thomas Scientific), in homogenisation buffer (50 mM Tris-HCl, 5 mM MgCl2, 5 mM EDTA, 1 mM EGTA, 1:500 protease inhibitor cocktail containing aprotinin and amastatin, balanced at pH 7.4) at 4°C. The resulting homogenate was subsequently spun at 1000 xg for 2 mins at 4°C. Supernatant was transferred to another set of tubes (pellet discarded) for a high speed spin at 40,000 xg, for 30 mins at 4°C. Supernatant was then discarded, and the remaining pellet resuspended in 2.5 mL/g of homogenisation buffer, before a second high speed spin at 40,000 xg, for 30 mins at 4°C. The supernatant was discarded, and the remaining pellet was resuspended in HEPES buffer (50 mM HEPES, balanced at pH 7.4 at room temperature) and stored in the freezer at -70°C until use in assays.
The radiolabel has a specific activity of 2200 Ci/mmol. […]
Total binding was determined in the absence of competing fluorescent ligand. […] Radioactivity in pellets was counted using a Cobra II model 5003 gamma counter (Packard). […]

apelin receptor [6] = test: Fluorescent ligand binding (saturation, specificity, competition) in CHO-APLNR cells by high content imaging; conditions: 300 nM apelin647, wild-type CHO-K1 cells without apelin receptor
Experimental: as §1, §2, §3

[7] = 1 µM fluorescent ligand alone, human kidney sections, 30 mins
[8] = 1 µM fluorescent ligand plus 10 µM [Pyr1]apelin-13 (apelin488) or ELA-14 (ELA488)

CCC(CC)n1c(Cc2cccs2)nc2cc(C(=O)N[C@H](CC(=O)O)CC(C)C)ccc21 [CMF-019]
pKi (apelin receptor [1]): 5.91

CSCC[C@H](NC(=O)[C@H](CS)NC(=O)[C@H](CCCNC(=N)N)NC(=O)[C@H](CCCNC(=N)N)NC(=O)[C@H](CCC(N)=O)NC(=O)CCOCCOCCOCCOCCNC(=O)c1ccc(-c2c3ccc(=N)c(S(=O)(=O)O)c-3oc3c(S(=O)(=O)O)c(N)ccc23)c(C(=O)O)c1)C(=O)N1CCC[C@H]1C(=O)N[C@@H](CC(C)C)C(=O)N[C@@H](Cc1c[nH]cn1)C(=O)N[C@@H](CO)C(=O)N[C@@H](CCCNC(=N)N)C(=O)N[C@H](C(=O)N1CCC[C@H]1C(=O)N[C@@H](Cc1ccccc1)C(=O)N1CCC[C@H]1C(=O)O)C(C)C [ELA488]
Emax [2]: 169693 ± 9461 RLU
mean fluorescence in renal blood vessels (apelin receptor [3]; [7]): 18869 ± 5968 grayscales
mean fluorescence in tubular structures of the renal cortex (apelin receptor [3]; [7]): 7392 ± 1338 grayscales
mean fluorescence in renal blood vessels in the presence of unlabelled parent ligand (apelin receptor [3]; [8]): 7946 ± 3656 grayscales
mean fluorescence in tubular structures of the renal cortex in the presence of unlabelled parent ligand (apelin receptor [3]; [8]): 2458 ± 801 grayscales
Emax (apelin receptor [4]): 240.32 ± 27.91 ΔPWV
binding affinity fold lower than the unlabelled endogenous parent ligand (apelin receptor [5]): ~ 23 fold

CSCC[C@H](NC(=O)[C@H](CS)NC(=O)[C@H](CCCNC(=N)N)NC(=O)[C@H](CCCNC(=N)N)NC(=O)[C@H](CCC(N)=O)NC(=O)CCOCCOCCOCCOCCNC(=O)CCCCCC1(C)C(=CC=CC=CC2=[N+](CCCS(=O)(=O)[O-])c3ccc(S(=O)(=O)O)cc3C2(C)C)N(CCCS(=O)(=O)O)c2ccc(S(=O)(=O)O)cc21)C(=O)N1CCC[C@H]1C(=O)N[C@@H](CC(C)C)C(=O)N[C@@H](Cc1c[nH]cn1)C(=O)N[C@@H](CO)C(=O)N[C@@H](CCCNC(=N)N)C(=O)N[C@H](C(=O)N1CCC[C@H]1C(=O)N[C@@H](Cc1ccccc1)C(=O)N1CCC[C@H]1C(=O)O)C(C)C (stereo partly shown) [ELA647]
Emax [2]: 128992 ± 6218 RLU
Emax (apelin receptor [4]): 185.23 ± 36.82 ΔPWV
binding affinity fold lower than the unlabelled endogenous parent ligand (apelin receptor [5]): ~ 58 fold

CC(C)C[C@@H]1NC(=O)[C@H](CCCNC(=N)N)NC(=O)[C@@H]2CCCN2C(=O)[C@H](CCCNC(=N)N)NC(=O)[C@@H](NC(=O)[C@H](Cc2c[nH]cn2)NC(=O)[C@H](CCCCN)NC(=O)[C@@H]2CSSC[C@H](N)C(=O)N[C@@H](CCCNC(=N)N)C(=O)N3CCC[C@H]3C(=O)N[C@@H](CCCNC(=N)N)C(=O)N[C@@H](CC(C)C)C(=O)N2)CSSC[C@@H](C(=O)O)NC1=O [MM54] (H-CRPRLCKHCRPRLC-OH; disulfide 1-6, 9-14)
Ki (apelin receptor [1]): 5.75 µM

CCCC[C@H](NC(=O)[C@@H]1CCCN1C(=O)CNC(=O)[C@H](CCCCN)NC(=O)[C@H](Cc1c[nH]cn1)NC(=O)[C@H](CO)NC(=O)[C@H](CC(C)C)NC(=O)[C@H](CCCNC(=N)N)NC(=O)[C@@H]1CCCN1C(=O)[C@H](CCCNC(=N)N)NC(=O)[C@H](CCC(N)=O)NC(=O)CCOCCOCCOCCOCCNC(=O)CCCCCC1(C)C(=CC=CC=CC2=[N+](CCCS(=O)(=O)[O-])c3ccc(S(=O)(=O)O)cc3C2(C)C)N(CCCS(=O)(=O)O)c2ccc(S(=O)(=O)O)cc21)C(=O)N1CCC[C@H]1C(=O)N[C@@H](Cc1ccc(OCc2ccccc2)cc1)C(=O)O (stereo partly shown) [apelin647]
binding in wild-type CHO-K1 cells (apelin receptor [6]): 0.70 ± 0.45 mean fluorescence
